We go through four compounds from patent US20250034216A1, “STEREOSELECTIVE COVALENT LIGANDS FOR ONCOGENIC AND IMMUNOLOGICAL PROTEINS” (The Scripps Research Institute, priority 2021, published 2025).

For the assay, the target named is T1, STRBP_C142 (Homo sapiens, UniProt Q96SI9).
T1 construct: endogenous in cells; host or cells: 22Rv1
T1 sequence (Q96SI9 1-672): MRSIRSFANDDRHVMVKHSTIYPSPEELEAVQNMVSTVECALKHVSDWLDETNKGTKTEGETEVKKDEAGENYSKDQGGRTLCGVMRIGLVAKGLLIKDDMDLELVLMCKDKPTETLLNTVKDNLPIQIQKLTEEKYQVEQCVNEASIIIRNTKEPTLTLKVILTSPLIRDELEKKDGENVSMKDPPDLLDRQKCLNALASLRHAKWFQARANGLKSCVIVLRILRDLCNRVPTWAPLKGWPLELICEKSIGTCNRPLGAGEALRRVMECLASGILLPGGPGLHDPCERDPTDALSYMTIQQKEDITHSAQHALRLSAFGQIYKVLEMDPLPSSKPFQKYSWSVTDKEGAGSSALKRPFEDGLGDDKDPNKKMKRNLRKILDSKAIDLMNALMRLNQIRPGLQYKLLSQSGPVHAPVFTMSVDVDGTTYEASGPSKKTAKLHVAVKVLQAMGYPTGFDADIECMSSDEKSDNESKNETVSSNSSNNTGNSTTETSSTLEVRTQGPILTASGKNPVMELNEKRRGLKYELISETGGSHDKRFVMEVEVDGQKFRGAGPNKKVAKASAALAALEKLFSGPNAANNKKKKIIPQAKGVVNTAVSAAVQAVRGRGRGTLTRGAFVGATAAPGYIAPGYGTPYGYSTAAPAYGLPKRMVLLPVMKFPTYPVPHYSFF
The assay can be described thus: IA-DTB cysteine engagement. The class given is binding. Particulars: 22Rv1 cells, 20 μM probe, 1 h, relative to DMSO. In outline: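 Cells were treated in situ with electrophilic probes, then lysed, and the lysates (2 mg/mL protein) were labeled with IA-DTB for 1 h at ambient temperature. After reduction, alkylation and trypsin digestion, labeled peptides were streptavidin-enriched, TMT-labeled and fractionated. Engagement ratios are probe vs DMSO reporter intensities, averaged across replicates.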

For the compound `C=CC(=O)N1C[C@H](c2ccc(Br)cc2)[C@H]1C(=O)Nc1cccc2cccnc12` [MY-3A, (2S,3S)-1-acryloyl-3-(4-bromophenyl)-N-(quinolin-8-yl)azetidine-2-carboxamide], the “% engagement STRBP_C142” value was determined as 16.25%.
In the case of `C=CC(=O)N1C[C@@H](c2ccc(Br)cc2)[C@H]1C(=O)Nc1cccc2cccnc12` [MY-1A, (2S,3R)-1-acryloyl-3-(4-bromophenyl)-N-(quinolin-8-yl)azetidine-2-carboxamide], the “% engagement STRBP_C142” value amounted to 88.25%.
In the case of `C=CC(=O)N1C[C@H](c2ccc(Br)cc2)[C@@H]1C(=O)Nc1cccc2cccnc12` [MY-1B, (2R,3S)-1-acryloyl-3-(4-bromophenyl)-N-(quinolin-8-yl)azetidine-2-carboxamide] it was 8.5%; in that of `C=CC(=O)N1C[C@H](c2ccc(Br)cc2)[C@H]1C(=O)Nc1cccc2cccnc12` [MY-3B, (2S,3S)-1-acryloyl-3-(4-bromophenyl)-N-(quinolin-8-yl)azetidine-2-carboxamide], 7.75%.
